Results reported in patent US20260218439A1, “METHOD OF TREATING OR REDUCING CANCER COMPRISING ADMINISTERING A COMPOUND 3-(BENZO[D][1,3]DIOXOL-5-YL)-7-(1-HYDROXYPROPAN-2-YL)-1-(1H-INDOLE-3-YL)-6,7-DIHYDRO-3H-OXAZOLE[3,4-A]PYRAZINE-5,8-DIONE” (BIOLAB SANUS FARMACEUTICA LTDA, priority 2019, published 2026).

Assays:
PDE5A1 = biological target: T1, PDE5A1 (Homo sapiens, UniProt O76074); experiment: PDE5A1 fluorescence polarization enzyme assay (BPS Bioscience kit 60350); format: biochemical
T1 construct: purchased BPS Bioscience 60350
Experimental: The evaluation of the compound is studied using BPS Bioscience enzyme assay kit (catalogue 60350). The PDE5A1 Assay kit is designed for identification of PDE5A1 inhibitors using fluorescence polarization. The assay is based on the binding of a fluorescent nucleotide monophosphate generated by PDE5A1 enzyme to the binding agent.
In this methodology only two simple steps on a microtiter plate are required for PDE5A1 reactions. First, the fluorescently labeled cGMP is incubated with PDE5A1 for 1 hour. Second, the binding agent is added to the reaction mixture to produce a change in fluorescent polarization that can then be measured using a fluorescence reader equipped for the measurement of fluorescence polarization.
For the assay the storage reagent FAM-Cyclic-3′,5′-GMP (20 μM) is diluted with PDE assay buffer to achieve the solution with a […]; the PDE5A1 enzyme is thawed and diluted with the PDE buffer obtaining a PDE5A1 solution at 10 μg/mL.
The assay compounds are diluted with DMSO 100% (v/v) at a concentration of 1000 μM and subsequently diluted in a Sodium chloride 0.9% solution to obtain a curve of concentrations of interest for the assay. The compounds are diluted in concentrations of: 10 nM, 30 nM, 50 nM, 100 nM, 300 nM, 500 nM, 1 μM, 3 μM, 5 μM (DMSO 10% v/v).
The study is comprised of groups: (i) substrate control; (ii) positive control (KIT); (iii) samples in several concentrations; (iv) tadalafil (comparative control). Each parameter (group) is triple labeled.
• For the 4 groups there is added, to each microplate well, […] of the FAM-Cyclic-3′ reagent, 5′-GMP (200 μM). • To the substrate control group there is added, to each well, […] of vehicle (DMSO 10% v/v) and […] PDE Buffer. • To the positive control group there is added, to each well, […] of vehicle (DMSO 10% v/v). • To the tadalafil group: there is added 5 mL of the solution in the concentrations of interest. • To the test group there is added 5 mL of the sample solution (test compound)
OBSERVATION: the parameters tested are in triplicate.
To begin the reaction, add […] of the PDE5A1 enzyme (diluted as described above) to the microplate wells designated as Positive Control and Samples (test and tadalafil), and incubate the microplate, for 1 hour, at a temperature of 25° C.
After the incubation period, the reaction is interrupted by the addition, in all the wells, of […] of the binding agent solution and the microplate is incubated for 30 minutes, under light stirring, at room temperature. The reading of the microplate is carried out in Polarized Fluorescence (475-495 nm—excitation and 518-538 nm—emission detection) 500 nanoseconds integration time.

[1] = tested on: PC3-human prostate cancer cells; experiment: Cell proliferation inhibition (CYQuant intracellular DNA), PC3; format: cell-based; details: for % Cell Proliferation Inhibition (intracellular DNA) PC-3 (average ± E.P.M.): 72 hours
Experimental: (§1) For the execution of the assay, the compounds are diluted in DMSO 100% (v/v) at a concentration of 1000 μM and subsequently diluted in a Sodium Chloride solution 0.9% to obtain the storage solutions of interest for use in the assays. The final concentration of interest will be directly diluted in the cell culture medium. For the assay there are used the following tumor cell lineages: PC3-human prostate cancer cells; LNCAP-human prostate cancer cells; DU145-human prostate cancer; MNK45-human gastric cancer and RT4-human bladder cancer cells. The tumor cell lineages are maintained in culture according to standard procedures established by the Cell Bank of Rio de Janeiro (lineage place of origin) Procedure: • For the assay, the tumor cells are seeded in the concentration of 10.000 cells per well (final volume of the reaction of […]), the plate is incubated for 8 hours, for the cells to adhere to the wall of the wells. After this period, the plate is divided in groups: • (a) test group: […] of the samples were added (test compound) in the concentrations of interest; • (b) positive control group: […] of culture medium were added (100% of cell proliferation); • (c) negative control group: 200 mL of culture medium and […] of the vehicle used were added to dilute the compounds (without cells—zero proliferation); • (d) control group: […] were added of the vehicle used to dilute the compounds. This group is important to evaluate whether the vehicle used interferes in the cell proliferation. OBSERVATION: the treatment with the concentrations of samples (test compounds) and of the controls are carried out in triplicate. • Incubate the plate for 72 hours in a CO2 kiln at 37° C. • After the incubation period, add […] of the solution with DNA marker from the CYQuant Kit and incubate the plate, for 60 minutes, in a CO2 incubator at 37° C. The fluorescence intensity is determined using a fluorescence microplate reader with 485 nm excitation and 530 nm emission detection. The results obtained were normalized relative to the positive control group (100% proliferation). For the compounds there are prepared the storage solutions in the concentrations of: 100 nM, 1 μM, 3 μM, 5 μM, 10 μM and 30 μM (DMSO 10% v/v). While the final concentrations in the test are of: 10 nM, 100 nM, 300 nM, 500 nM, 1000 nM and 3000 nM (in DMSO 1% v/v).

[2] = tested on: LNCAP-human prostate cancer cells; experiment: Cell proliferation inhibition (CYQuant intracellular DNA), LNCAP; format: cell-based; details: for % Cell Proliferation Inhibition (intracellular DNA) LNCAP (average ± E.P.M.): 72 hours
Experimental: as §1

[3] = tested on: DU145-human prostate cancer; experiment: Cell proliferation inhibition (CYQuant intracellular DNA), DU145; format: cell-based; details: for % Cell Proliferation Inhibition (intracellular DNA) DU145 (average ± E.P.M.): 72 hours
Experimental: as §1

[4] = tested on: MNK45-human gastric cancer; experiment: Cell proliferation inhibition (CYQuant intracellular DNA), MNK45; format: cell-based; details: 72 hours
Experimental: as §1

[5] = tested on: RT4-human bladder cancer cells; experiment: Cell proliferation inhibition (CYQuant intracellular DNA), RT4; format: cell-based; details: for % Cell Proliferation Inhibition (intracellular DNA) RT4 (average ± E.P.M.): 72 hours
Experimental: as §1

Substance: (R)-3-(benzo [d][1, 3]dioxol-5-yl)-7-((S)-1-hydroxypropan-2-yl)-1-(1H-indole-3-yl)-6, 7-dihydro-3H-oxazole [3, 4-a]pyrazine-5, 8-dione with (S)-3-(benzo [d][1,3]dioxol-5-yl)-7-((S)-1-hydroxypropan-2-yl)-1-(1H-indole-3-yl)-6, 7-dihydro-3H-oxazole [3, 4-a]pyrazine-5, 8-dione [BL-241]
- % of Inhibition (PDE5A1) (PDE5A1; compound 500 nM): 57%
- % of Inhibition (PDE5A1) (PDE5A1; compound 1000 nM): 71%
- % of Inhibition (PDE5A1) (PDE5A1; compound 3000 nM): 88%
- PDE5 inhibition (result in words) (PDE5A1; concentration series): capable of inhibiting the PDE5 in a dose-dependent manner
- antiproliferative effect (result in words) ([1]; PC3 prostate cancer tumor lineage): presented antiproliferative effect
- % Cell Proliferation Inhibition (intracellular DNA) PC-3 (average ± E.P.M.) ([1]; PC-3, 10 nM): 27 ± 11%
- % Cell Proliferation Inhibition (intracellular DNA) PC-3 (average ± E.P.M.) ([1]; PC-3, 100 nM): 36 ± 7%
- % Cell Proliferation Inhibition (intracellular DNA) PC-3 (average ± E.P.M.) ([1]; PC-3, 300 nM): 42 ± 6%
- % Cell Proliferation Inhibition (intracellular DNA) PC-3 (average ± E.P.M.) ([1]; PC-3, 500 nM): 46 ± 1%
- % Cell Proliferation Inhibition (intracellular DNA) PC-3 (average ± E.P.M.) ([1]; PC-3, 1000 nM): 33 ± 3%
- antiproliferative effect (result in words) ([2]; LNCAP prostate cancer tumor lineage): presented antiproliferative effect
- % Cell Proliferation Inhibition (intracellular DNA) LNCAP (average ± E.P.M.) ([2]; 10 nM): 25 ± 2%
- % Cell Proliferation Inhibition (intracellular DNA) LNCAP (average ± E.P.M.) ([2]; 100 nM): 37 ± 3%
- % Cell Proliferation Inhibition (intracellular DNA) LNCAP (average ± E.P.M.) ([2]; 300 nM): 38 ± 4%
- % Cell Proliferation Inhibition (intracellular DNA) LNCAP (average ± E.P.M.) ([2]; 500 nM): 44 ± 2%
- % Cell Proliferation Inhibition (intracellular DNA) LNCAP (average ± E.P.M.) ([2]; 1000 nM): 34 ± 6%
- % Cell Proliferation Inhibition (intracellular DNA) DU145 (average ± E.P.M.) ([3]; DU145, 100 nM): 33 ± 8%
- % Cell Proliferation Inhibition (intracellular DNA) DU145 (average ± E.P.M.) ([3]; DU145, 300 nM): 17 ± 3%
- % Cell Proliferation Inhibition (intracellular DNA) DU145 (average ± E.P.M.) ([3]; DU145, 500 nM): 18 ± 2%
- % Cell Proliferation Inhibition (intracellular DNA) DU145 (average ± E.P.M.) ([3]; DU145, 1000 nM): 22 ± 2%
- % Cell Proliferation Inhibition (intracellular DNA) DU145 (average ± E.P.M.) ([3]; DU145, 3000 nM): 43 ± 5%
- antiproliferative effect (result in words) ([3]; DU145 prostate cancer tumor lineage): presented antiproliferative effect
- % Cell Proliferation Inhibition (intracellular DNA) MNK45 (average ± E.P.M.) ([4]; MNK45, 100 nM): 25 ± 1%
- % Cell Proliferation Inhibition (intracellular DNA) MNK45 (average ± E.P.M.) ([4]; MNK45, 300 nM): 10 ± 2%
- % Cell Proliferation Inhibition (intracellular DNA) MNK45 (average ± E.P.M.) ([4]; MNK45, 500 nM): 2 ± 1%
- % Cell Proliferation Inhibition (intracellular DNA) MNK45 (average ± E.P.M.) ([4]; MNK45, 1000 nM): 4 ± 1%
- % Cell Proliferation Inhibition (intracellular DNA) MNK45 (average ± E.P.M.) ([4]; MNK45, 3000 nM): 20 ± 3%
- % Cell Proliferation Inhibition (intracellular DNA) RT4 (average ± E.P.M.) ([5]; RT4, 100 nM): 28 ± 6%
- % Cell Proliferation Inhibition (intracellular DNA) RT4 (average ± E.P.M.) ([5]; RT4, 300 nM): 5 ± 2%
- % Cell Proliferation Inhibition (intracellular DNA) RT4 (average ± E.P.M.) ([5]; RT4, 500 nM): 4 ± 2%
- % Cell Proliferation Inhibition (intracellular DNA) RT4 (average ± E.P.M.) ([5]; RT4, 1000 nM): 11 ± 8%
- % Cell Proliferation Inhibition (intracellular DNA) RT4 (average ± E.P.M.) ([5]; RT4, 3000 nM): 57 ± 4%
- antiproliferative effect (result in words) ([5]; RT4 bladder cancer tumor lineage): presented antiproliferative effect
